From PMC8500837, “The tertiary structure of the human Xkr8–Basigin complex that scrambles phospholipids at plasma membranes” (Nature Structural & Molecular Biology, 2021)
Positions count from the first letter of the chain named. Where a name gives a salt, the structure may show the parent alone.

Assays:
[1] = biological target: T1, mXkr8 (mXkr8-GFP; mXkr8–BSG complex) (Mus musculus, UniProt Q8C0T0, W45A); assay: flow cytometry of NBD-SM internalization (BSA back-extraction) in Ba/F3 transformants; assay type: cell-based; details: 0.5 µM NBD-SM, 20 °C, labelled compound; constitutively active mutant
T1 construct: gene Xkr8; full length, C-terminal GFP tag, stably expressed in TMEM16F-/- Xkr8-/- mouse Ba/F3 cells; endogenous Basigin (or Neuroplastin) as partner; with Basigin
T1 sequence (Q8C0T0 1-401 W45A): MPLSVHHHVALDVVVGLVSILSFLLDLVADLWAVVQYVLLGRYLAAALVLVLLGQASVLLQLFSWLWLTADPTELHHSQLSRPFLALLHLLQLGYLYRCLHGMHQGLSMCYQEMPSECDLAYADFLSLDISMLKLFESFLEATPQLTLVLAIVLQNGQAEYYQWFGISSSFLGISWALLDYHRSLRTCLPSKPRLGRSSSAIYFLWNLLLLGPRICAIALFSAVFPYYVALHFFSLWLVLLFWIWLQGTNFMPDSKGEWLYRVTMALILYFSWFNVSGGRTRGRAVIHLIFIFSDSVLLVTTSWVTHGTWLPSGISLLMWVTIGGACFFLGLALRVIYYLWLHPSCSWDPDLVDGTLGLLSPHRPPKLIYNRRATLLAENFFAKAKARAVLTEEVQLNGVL
T1 sequence (P18572 22-389 partner): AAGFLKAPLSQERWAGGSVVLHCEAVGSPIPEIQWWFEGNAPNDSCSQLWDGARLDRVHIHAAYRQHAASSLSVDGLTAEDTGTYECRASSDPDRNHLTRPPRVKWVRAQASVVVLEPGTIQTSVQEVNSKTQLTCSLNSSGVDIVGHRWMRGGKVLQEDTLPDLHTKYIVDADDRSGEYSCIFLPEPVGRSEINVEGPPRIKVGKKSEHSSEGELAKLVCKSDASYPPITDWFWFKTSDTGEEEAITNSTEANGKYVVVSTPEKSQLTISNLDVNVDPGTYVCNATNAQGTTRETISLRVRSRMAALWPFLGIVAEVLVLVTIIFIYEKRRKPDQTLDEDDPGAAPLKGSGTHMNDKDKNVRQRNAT

[2] = biological target: T2, mXkr8 (mXkr8-GFP; mXkr8–BSG complex) (Mus musculus, UniProt Q8C0T0); assay: as above; assay type: cell-based; details: 0.5 µM NBD-SM, 4 °C or 20 °C, labelled compound; lipid scrambling outer to inner leaflet
T2 construct: gene Xkr8; full length, C-terminal GFP tag, stably expressed in TMEM16F-/- Xkr8-/- mouse Ba/F3 cells; endogenous Basigin (or Neuroplastin) as partner; with Basigin
T2 sequence (Q8C0T0 1-401): T1 sequence (Q8C0T0 1-401 W45A) with A45W
T2 sequence (P18572 22-389 partner): T1 sequence (P18572 22-389 partner)

**Q.** With `CCCCCCCCCCCCC/C=C/[C@@H](O)[C@H](COP(=O)([O-])OCC[N+](C)(C)C)NC(=O)CCCCCNc1ccc([N+](=O)[O-])c2nonc12` [NBD-SM, (7S)-4-hydroxy-7-[(1R,2E)-1-hydroxy-2-hexadecen-1-yl]-N,N,N-trimethyl-14-[(7-nitro-2,1,3-benzoxadiazol-4-yl)amino]-9-oxo-3,5-dioxa-8-aza-4-phosphatetradecan-1-aminium, 4-oxide inner salt] as the compound, how does the “fold internalization vs wild type” value [1] read?
**A.** ~ 3 fold

**Q.** And the “flow cytometry of NBD-SM internalization (BSA back-extraction) in Ba/F3 transfor” value [2]?
**A.** Ba/F3 cell transformants expressing wild-type Xkr8 efficiently incorporated NBD-SM
